Where “and” joins values, the source holds several entries; their conditions need not be identical. Equal entries are not always repeated.
What was measured:
P2X7 [1] = biological target: T1, P2X7 (Homo sapiens (Human), UniProt Q99572); experiment: P2X7 antagonism in human peripheral blood mononuclear cells (PBMCs), IL-1β release (LPS + Bz-ATP, ELISA); format: cell-based; settings: P2X7, 10 μM test compound, LPS 30 ng/ml + Bz-ATP 0.5 mM, read-out: PBMC @10 μM (% control)
Method: (§1) P2X7 Antagonism in Human Peripheral Blood Mononuclear Cells (PBMCs) and Human Whole Blood.
(§2) Human blood was collected using a blood donor program. PBMCs were isolated from blood using a Ficoll density gradient technique. Briefly, blood was laid on Ficoll solution and centrifuged at ROOM TEMPERATURE for 20 minutes at 2000 rpm. The buffy layer (between red blood cells and plasma) was carefully collected by aspiration, washed with PBS and centrifuged again at 1500 rpm for 15 minutes. The resulting cell pellet was washed and plated on 96 well-plates for experiments. For the Human Whole Blood experiments, 150 μl of human blood was plated on 96 well-plates. Lipopolysaccharide (LPS) (30 ng/ml) was added to each well and incubated for 1 hour. Test compounds were then added and incubated for 30 minutes. The P2X7 agonist, 2′(3′)-O-(4-benzoylbenzoyl) adenosine 5′-triphosphate (Bz-ATP) was then added at a final concentration of 0.5 mM (PBMC) or 1 mM (blood). Cells were incubated for an additional 1.5 hours. At that point, supernatant was collected and stored for IL-1β assay using manufacturer's protocol for enzyme-linked immunosorbant assay (ELISA). Data was expressed as percent control, where control is defined as the difference in IL-1β release in LPS+Bz-ATP samples and LPS only samples. Data was plotted as response (% control) versus concentration to generate IC50 values. […] Data are analyzed and graphed on Graphpad Prism 5. For analysis, each concentration point is averaged from triplicate values and the averaged values are plotted on Graphpad Prism. The IC50 for each compound is then uploaded into 3DX.

rat P2X7 = rat P2X7 (Rattus norvegicus (Rat), UniProt Q64663); experiment: P2X7 antagonism in recombinant rat P2X7 cells (column headed P2X7 Rat IC50); format: binding
Method: The in vitro affinity of the compounds of the invention for the rat and human P2X7 receptor was determined using a human peripheral blood mononuclear cells (PBMCs), a human whole blood assay, a Ca^2+ flux and radioligand binding assay in recombinant human P2X7 cells and recombinant rat P2X7 cells. […] The data represented in Tables 2 may represent a value from a single determination or when the experiment was run more than once, the data represents the average from between 2-12 runs.
P2X7 Antagonism in Recombinant Human P2X7 Cells or Recombinant Rat P2X7 Cells: […]

P2X7 [2] = biological target: T1, P2X7; experiment: P2X7 antagonism in human whole blood, IL-1β release (LPS + Bz-ATP, ELISA); format: cell-based; settings: Human Whole Blood IC50 (μM), LPS 30 ng/ml + Bz-ATP 1 mM
Method: as §1, §2

T1 sequence (Q99572 whole entry): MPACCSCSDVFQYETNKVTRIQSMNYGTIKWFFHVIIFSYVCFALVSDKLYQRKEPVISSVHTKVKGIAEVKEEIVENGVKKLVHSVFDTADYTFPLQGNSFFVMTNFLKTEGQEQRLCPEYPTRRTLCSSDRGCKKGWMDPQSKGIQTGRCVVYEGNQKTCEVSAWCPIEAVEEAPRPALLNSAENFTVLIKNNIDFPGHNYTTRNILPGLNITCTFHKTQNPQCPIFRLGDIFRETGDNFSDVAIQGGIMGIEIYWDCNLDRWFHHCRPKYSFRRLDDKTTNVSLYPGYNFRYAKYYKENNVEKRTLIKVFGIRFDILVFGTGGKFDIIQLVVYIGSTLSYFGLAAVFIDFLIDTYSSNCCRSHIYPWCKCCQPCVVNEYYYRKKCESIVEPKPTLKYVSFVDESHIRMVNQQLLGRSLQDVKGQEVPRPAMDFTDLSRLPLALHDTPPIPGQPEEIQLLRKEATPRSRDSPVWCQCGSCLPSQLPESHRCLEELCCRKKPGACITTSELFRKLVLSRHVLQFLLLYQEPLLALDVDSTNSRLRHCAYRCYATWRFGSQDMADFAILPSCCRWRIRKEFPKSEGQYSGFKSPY
Chain of rat P2X7 (Q64663 whole entry): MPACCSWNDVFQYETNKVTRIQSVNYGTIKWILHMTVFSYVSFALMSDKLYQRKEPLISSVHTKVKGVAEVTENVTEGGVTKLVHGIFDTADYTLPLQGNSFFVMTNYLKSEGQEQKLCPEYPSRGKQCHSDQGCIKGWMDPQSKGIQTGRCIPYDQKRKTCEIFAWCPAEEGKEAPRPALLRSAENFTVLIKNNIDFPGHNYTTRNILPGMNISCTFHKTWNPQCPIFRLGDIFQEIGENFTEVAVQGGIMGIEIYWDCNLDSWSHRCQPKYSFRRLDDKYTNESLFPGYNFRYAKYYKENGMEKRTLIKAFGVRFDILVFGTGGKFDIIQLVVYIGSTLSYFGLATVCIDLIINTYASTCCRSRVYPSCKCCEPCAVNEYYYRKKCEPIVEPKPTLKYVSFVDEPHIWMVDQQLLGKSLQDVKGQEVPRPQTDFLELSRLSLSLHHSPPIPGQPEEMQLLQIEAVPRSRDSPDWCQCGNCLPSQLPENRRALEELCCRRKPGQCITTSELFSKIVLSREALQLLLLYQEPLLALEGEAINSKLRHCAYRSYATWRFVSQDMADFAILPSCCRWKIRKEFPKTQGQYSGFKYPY

Structure (SMILES)	remaining activity at 10 µM (P2X7 [1])	IC50 (rat P2X7)	IC50 (P2X7 [2])
Cc1nc(-c2ccn[nH]2)c2c(n1)C1CCCC(C2)N1C(=O)c1cccc(C(F)(F)F)c1Cl (centres unmarked) [Example 2, (2-chloro-3-(trifluoromethyl)phenyl)(2-methyl-4-(1H-pyrazol-5-yl)-5,6,7,8,9,10-hexahydro-6,10-epiminocycloocta[d]pyrimidin-11-yl)methanone]	1.1%	–	–
Cc1nc(-c2ccn[nH]2)c2c(n1)[C@@H]1CCC[C@H](C2)N1C(=O)c1cccc(C(F)(F)F)c1Cl [Example 3, (2-chloro-3-(trifluoromethyl)phenyl)((6R,10S)-2-methyl-4-(1H-pyrazol-5-yl)-5,6,7,8,9,10-hexahydro-6,10-epiminocycloocta[d]pyrimidin-11-yl)methanone]	22%	811 nM	–
Cc1nc(-c2ccn[nH]2)c2c(n1)[C@@H]1CCC[C@H](C2)N1C(=O)c1ccc(F)c(Cl)c1Cl [Example 4, (2,3-dichloro-4-fluorophenyl)((6R,10S)-2-methyl-4-(1H-pyrazol-5-yl)-5,6,7,8,9,10-hexahydro-6,10-epiminocycloocta[d]pyrimidin-11-yl)methanone]	25.4%	948 nM	1.36 µM
Cc1nc(-c2ccn[nH]2)c2c(n1)[C@@H]1CCC[C@H](C2)N1C(=O)c1ccc(Cl)cc1Cl [Example 5, (2,4-dichlorophenyl)((6R,10S)-2-methyl-4-(1H-pyrazol-5-yl)-5,6,7,8,9,10-hexahydro-6,10-epiminocycloocta[d]pyrimidin-11-yl)methanone]	76.5%	–	2 µM
Cc1nc(-c2ccn[nH]2)c2c(n1)[C@@H]1CCC[C@H](C2)N1C(=O)c1cccc(C(F)(F)F)c1C [Example 6, (2-methyl-3-(trifluoromethyl)phenyl)((6R,10S)-2-methyl-4-(1H-pyrazol-5-yl)-5,6,7,8,9,10-hexahydro-6,10-epiminocycloocta[d]pyrimidin-11-yl)methanone]	18.1%	970 nM	1.13 µM
Cc1nc(-c2ccn[nH]2)c2c(n1)[C@@H]1CCC[C@H](C2)N1C(=O)c1ccnc(C(F)(F)F)c1Cl [Example 7, (3-chloro-2-(trifluoromethyl)pyridin-4-yl)((6R,10S)-2-methyl-4-(1H-pyrazol-5-yl)-5,6,7,8,9,10-hexahydro-6,10-epiminocycloocta[d]pyrimidin-11-yl)methanone]	20.5%	920 nM	2.35 µM
Cc1nc(-c2ccn[nH]2)c2c(n1)[C@@H]1CCC[C@H](C2)N1C(=O)c1cccc(C(F)(F)F)c1F [Example 8, (2-fluoro-3-(trifluoromethyl)phenyl)((6R,10S)-2-methyl-4-(1H-pyrazol-5-yl)-5,6,7,8,9,10-hexahydro-6,10-epiminocycloocta[d]pyrimidin-11-yl)methanone]	31.9%	601 nM	–
Cc1nc(-c2ccc(F)cc2)c2c(n1)[C@@H]1CCC[C@H](C2)N1C(=O)c1ccc(Cl)cc1Cl [Example 15, (2,4-dichlorophenyl)((6R,10S)-4-(4-fluorophenyl)-2-methyl-5,6,7,8,9,10-hexahydro-6,10-epiminocycloocta[d]pyrimidin-11-yl)methanone]	–	–	5.05 µM and 13.3 µM
Cc1nc(-c2ccc(F)cc2)c2c(n1)[C@@H]1CCC[C@H](C2)N1C(=O)c1ccc(F)c(Cl)c1Cl [Example 17, (2,3-dichloro-4-fluorophenyl)((6R,10S)-4-(4-fluorophenyl)-2-methyl-5,6,7,8,9,10-hexahydro-6,10-epiminocycloocta[d]pyrimidin-11-yl)methanone]	13.3%	–	2.02 µM
Cc1nc(-c2ccc(F)cc2)c2c(n1)[C@@H]1CCC[C@H](C2)N1C(=O)c1ccnc(C(F)(F)F)c1Cl [Example 18, (3-chloro-2-(trifluoromethyl)pyridin-4-yl)((6R,10S)-4-(4-fluorophenyl)-2-methyl-5,6,7,8,9,10-hexahydro-6,10-epiminocycloocta[d]pyrimidin-11-yl)methanone]	28.9%	> 10000 nM	–
Cc1nc(-c2ccn[nH]2)c2c(n1)[C@H]1CCC[C@@H](C2)N1C(=O)c1cccc(C(F)(F)F)c1Cl [Example 19, (2-chloro-3-(trifluoromethyl)phenyl)((6S,10R)-2-methyl-4-(1H-pyrazol-5-yl)-5,6,7,8,9,10-hexahydro-6,10-epiminocycloocta[d]pyrimidin-11-yl)methanone]	-3%	12.2 nM	–
Cc1nc(-c2ccn[nH]2)c2c(n1)[C@H]1CCC[C@@H](C2)N1C(=O)c1cccc(C(F)(F)F)c1F [Example 26, (2-fluoro-3-(trifluoromethyl)phenyl)((6S,10R)-2-methyl-4-(1H-pyrazol-5-yl)-5,6,7,8,9,10-hexahydro-6,10-epiminocycloocta[d]pyrimidin-11-yl)methanone]	-3.8%	41.4 nM	–
Cc1nc(-c2cnn(C)c2)c2c(n1)[C@H]1CCC[C@@H](C2)N1C(=O)c1cccc(C(F)(F)F)c1Cl [Example 30, (2-chloro-3-(trifluoromethyl)phenyl)((6S,10R)-2-methyl-4-(1-methyl-1H-pyrazol-4-yl)-5,6,7,8,9,10-hexahydro-6,10-epiminocycloocta[d]pyrimidin-11-yl)methanone]	-3.7%	> 10000 nM	–
Cc1nc(-c2cnn(C)c2)c2c(n1)[C@H]1CCC[C@@H](C2)N1C(=O)c1ccc(F)cc1Cl [Example 36, (2-chloro-4-fluorophenyl)((6S,10R)-2-methyl-4-(1-methyl-1H-pyrazol-4-yl)-5,6,7,8,9,10-hexahydro-6,10-epiminocycloocta[d]pyrimidin-11-yl)methanone]	73.8%	–	–
Cc1nc(-c2cnn(C)c2)c2c(n1)[C@H]1CCC[C@@H](C2)N1C(=O)c1ccc(Cl)cc1Cl [Example 40, (2,4-dichlorophenyl)((6S,10R)-2-methyl-4-(1-methyl-1H-pyrazol-4-yl)-5,6,7,8,9,10-hexahydro-6,10-epiminocycloocta[d]pyrimidin-11-yl)methanone]	76.2%	–	–
Cc1nc(-c2ncccn2)c2c(n1)[C@H]1CCC[C@@H](C2)N1C(=O)c1cccc(C(F)(F)F)c1C [Example 43, (2-methyl-3-(trifluoromethyl)phenyl)((6S,10R)-2-methyl-4-(pyrimidin-2-yl)-5,6,7,8,9,10-hexahydro-6,10-epiminocycloocta[d]pyrimidin-11-yl)methanone]	15%	41.7 nM	–
Cc1nc(-c2cnccn2)c2c(n1)[C@H]1CCC[C@@H](C2)N1C(=O)c1cccc(Cl)c1Cl [Example 48, (2,3-dichlorophenyl)((6S,10R)-2-methyl-4-(pyrazin-2-yl)-5,6,7,8,9,10-hexahydro-6,10-epiminocycloocta[d]pyrimidin-11-yl)methanone]	-4.3%	54.3 nM	–
Cc1nc(-c2cnccn2)c2c(n1)[C@H]1CCC[C@@H](C2)N1C(=O)c1ccnc(C(F)(F)F)c1Cl [Example 49, (3-chloro-2-(trifluoromethyl)pyridin-4-yl)((6S,10R)-2-methyl-4-(pyrazin-2-yl)-5,6,7,8,9,10-hexahydro-6,10-epiminocycloocta[d]pyrimidin-11-yl)methanone]	-1.9%	139 nM	–
Cc1nc(-c2ccc(F)cc2)c2c(n1)[C@H]1CCC[C@@H](C2)N1C(=O)c1ccnc(C(F)(F)F)c1Cl [Example 52, (3-chloro-2-(trifluoromethyl)pyridin-4-yl)((6S,10R)-4-(4-fluorophenyl)-2-methyl-5,6,7,8,9,10-hexahydro-6,10-epiminocycloocta[d]pyrimidin-11-yl)methanone]	-1.2%	81.8 nM	–
Cc1nc(-c2ccc(F)cc2)c2c(n1)[C@H]1CCC[C@@H](C2)N1C(=O)c1ccc(Cl)c(F)c1Cl [Example 54, (2,4-dichloro-3-fluorophenyl)((6S,10R)-4-(4-fluorophenyl)-2-methyl-5,6,7,8,9,10-hexahydro-6,10-epiminocycloocta[d]pyrimidin-11-yl)methanone]	9.3%	372 nM	–
Cc1nc(-c2ccccn2)c2c(n1)[C@H]1CCC[C@@H](C2)N1C(=O)c1ccnc(C(F)(F)F)c1Cl [Example 61, (3-chloro-2-(trifluoromethyl)pyridin-4-yl)((6S,10R)-2-methyl-4-(pyridin-2-yl)-5,6,7,8,9,10-hexahydro-6,10-epiminocycloocta[d]pyrimidin-11-yl)methanone]	0.4%	46 nM	–
